These results are taken from article PMC6381099, “Hydroxyoleoside-type seco-iridoids from Symplocos cochinchinensis and their insulin mimetic activity” (Scientific Reports, 2019).

In this experiment the target is T1, PTP1B (protein tyrosine phosphatase 1B) (Homo sapiens, UniProt P18031).
T1 construct: gene PTPN1
T1 sequence (P18031 1-435): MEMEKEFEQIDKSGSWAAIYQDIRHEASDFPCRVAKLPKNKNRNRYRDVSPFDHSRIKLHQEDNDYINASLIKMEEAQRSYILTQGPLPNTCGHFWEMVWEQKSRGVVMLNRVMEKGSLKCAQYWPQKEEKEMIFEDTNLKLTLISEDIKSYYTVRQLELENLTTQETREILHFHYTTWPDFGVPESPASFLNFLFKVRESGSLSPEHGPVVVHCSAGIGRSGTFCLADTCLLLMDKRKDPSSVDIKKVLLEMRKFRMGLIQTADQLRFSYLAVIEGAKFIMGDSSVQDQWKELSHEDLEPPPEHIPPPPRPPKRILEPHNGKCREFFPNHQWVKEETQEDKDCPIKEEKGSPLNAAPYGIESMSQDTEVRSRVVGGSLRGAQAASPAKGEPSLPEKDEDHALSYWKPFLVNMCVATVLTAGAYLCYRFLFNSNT
The experiment in a line: p-NPP hydrolysis assay with recombinant human PTP1B; Lineweaver-Burk kinetics. The format is biochemical.

Turning to `O=C(O)C[C@@H]1C(C(=O)O)=CO[C@@H](O[C@@H]2O[C@H](CO)[C@@H](O)[C@H](O)[C@H]2O)C1=CCOC(=O)/C=C/c1ccc(O)cc1` [compound 3, Symplocochinside C], the IC50 turned out to be 19.5 ± 0.76 µM.

In general, IC50 refers to the concentration that inhibits the measured activity by half.
